# Test results as given in US20030186967A1, “Acylresorcinol derivatives are selective vitronectin receptor inhibitors” (American Home Products Corporation, priority 1998, published 2003).
# Target: T1, Vitronectin receptor αVβ3 (Homo sapiens, UniProt P05106+P06756)
# T1 construct: expressed in transfected cells; host or cells: 512P5 cells (plasma membrane preparation)
# Assay: Vitronectin Receptor αVβ3 Binding Assay
# Settings: read-out: VnR (IC50μM)
# T1 sequence (P06756 31-889 limits assumed): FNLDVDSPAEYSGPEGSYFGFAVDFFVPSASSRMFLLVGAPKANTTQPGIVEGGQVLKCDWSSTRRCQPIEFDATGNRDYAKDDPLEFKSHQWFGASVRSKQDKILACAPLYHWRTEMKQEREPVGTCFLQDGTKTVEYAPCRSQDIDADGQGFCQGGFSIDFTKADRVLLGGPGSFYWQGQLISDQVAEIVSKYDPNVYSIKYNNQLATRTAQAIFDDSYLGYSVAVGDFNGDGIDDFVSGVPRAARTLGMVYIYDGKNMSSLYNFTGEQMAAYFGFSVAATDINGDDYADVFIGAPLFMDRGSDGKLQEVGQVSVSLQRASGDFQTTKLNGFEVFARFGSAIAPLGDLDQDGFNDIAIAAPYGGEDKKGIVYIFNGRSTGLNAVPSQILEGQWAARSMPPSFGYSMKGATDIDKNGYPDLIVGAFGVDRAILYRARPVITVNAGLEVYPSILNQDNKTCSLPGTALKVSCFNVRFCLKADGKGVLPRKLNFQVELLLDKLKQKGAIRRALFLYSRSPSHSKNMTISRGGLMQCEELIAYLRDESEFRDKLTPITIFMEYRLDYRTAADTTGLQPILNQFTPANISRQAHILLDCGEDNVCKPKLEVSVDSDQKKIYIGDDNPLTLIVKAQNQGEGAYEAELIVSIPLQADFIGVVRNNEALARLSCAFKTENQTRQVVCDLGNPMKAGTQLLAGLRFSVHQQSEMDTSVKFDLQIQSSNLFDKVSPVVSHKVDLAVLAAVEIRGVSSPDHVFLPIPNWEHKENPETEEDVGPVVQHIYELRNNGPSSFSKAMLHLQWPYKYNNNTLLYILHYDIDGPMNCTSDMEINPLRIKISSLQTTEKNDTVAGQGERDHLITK
# T1 sequence (P06756 891-1048 partner limits assumed): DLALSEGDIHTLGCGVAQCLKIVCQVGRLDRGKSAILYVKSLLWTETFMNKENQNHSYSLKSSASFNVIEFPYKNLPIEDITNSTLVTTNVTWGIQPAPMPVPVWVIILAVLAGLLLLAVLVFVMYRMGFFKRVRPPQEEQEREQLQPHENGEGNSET
# T1 sequence (P05106 27-788): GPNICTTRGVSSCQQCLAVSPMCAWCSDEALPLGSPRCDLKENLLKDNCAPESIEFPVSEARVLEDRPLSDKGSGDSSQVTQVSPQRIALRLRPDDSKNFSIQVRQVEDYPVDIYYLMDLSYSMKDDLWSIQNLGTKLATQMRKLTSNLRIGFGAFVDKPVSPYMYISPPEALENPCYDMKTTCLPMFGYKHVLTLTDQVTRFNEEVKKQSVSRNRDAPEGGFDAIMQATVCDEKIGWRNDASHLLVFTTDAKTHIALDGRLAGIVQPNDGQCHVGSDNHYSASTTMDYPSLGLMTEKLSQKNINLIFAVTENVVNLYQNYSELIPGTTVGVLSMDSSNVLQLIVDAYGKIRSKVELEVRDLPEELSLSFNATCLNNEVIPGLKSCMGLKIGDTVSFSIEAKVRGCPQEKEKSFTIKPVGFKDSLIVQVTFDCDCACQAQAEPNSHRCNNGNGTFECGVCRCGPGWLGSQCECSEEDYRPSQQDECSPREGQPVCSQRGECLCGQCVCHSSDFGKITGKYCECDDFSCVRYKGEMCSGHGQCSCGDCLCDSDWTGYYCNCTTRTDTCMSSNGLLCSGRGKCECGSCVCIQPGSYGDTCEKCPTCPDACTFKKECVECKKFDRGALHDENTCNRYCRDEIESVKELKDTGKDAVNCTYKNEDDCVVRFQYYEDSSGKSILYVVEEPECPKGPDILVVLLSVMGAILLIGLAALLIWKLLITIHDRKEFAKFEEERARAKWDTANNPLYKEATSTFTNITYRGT
row,IC50 [µM],SMILES
1,13.2,"N=C(N)NCCOc1ccc(C(=O)NC[C@H](NC(=O)CC2CCCCC2)C(=O)O)c(O)c1 [Example 201, (2S)-3-{[4-(2-{[amino(imino)methyl]amino}ethoxy)-2-hydroxybenzoyl]amino}-2-[(2-cyclohexylacetyl)amino]propanoic acid]"
2,> 1,"N=C(N)NCCOc1ccc(C(=O)NC[C@H](NC(=O)c2cccc(Cl)c2)C(=O)O)c(O)c1 [Example 215, (2S)-3-{[4-(2-{[amino(imino)methyl]amino}ethoxy)-2-hydroxybenzoyl]amino}-2-[(3-chlorobenzoyl)amino]propanoic acid]"
3,0.955,"O=C(Cc1ccccc1)N[C@@H](CNC(=O)c1ccc(OCCNC2=NCCN2)cc1O)C(=O)O [Example 127, (2S)-3-({4-[2-(4,5-dihydro-1H-imidazol-2-ylamino)ethoxy]-2-hydroxybenzoyl}-amino)-2-[(2-phenylacetyl)amino]propanoic acid]"
4,3.89,"COc1ccccc1NC(=O)N[C@@H](CNC(=O)c1ccc(OCCNC(=N)N)cc1O)C(=O)O [Example 174, (2S)-3-{[4-(2-{[amino(imino)methyl]amino}ethoxy)-2-hydroxybenzoyl]amino}-2-{[(2-methoxyanilino)carbonyl]amino}propanoic acid]"
5,> 1,"Cc1ccc(C(=O)N[C@@H](CNC(=O)c2ccc(OCCNC(=N)N)cc2O)C(=O)O)cc1 [Example 207, (2S)-3-{[4-(2-{[amino(imino)methyl]amino}ethoxy)-2-hydroxybenzoyl]amino}-2-[(4-methylbenzoyl)amino]propanoic acid]"
6,> 1,"N=C(N)NCCOc1ccc(C(=O)NC[C@H](NC(=O)c2ccc(Cl)cc2)C(=O)O)c(O)c1 [Example 206, (2S)-3-{[4-(2-{[amino(imino)methyl]amino}ethoxy)-2-hydroxybenzoyl]amino}-2-[(4-chlorobenzoyl)amino]propanoic acid]"
7,13.7,"Nc1ccccc1CNC(=O)NCCOc1ccc(C(=O)NC[C@H](NC(=O)OCc2ccccc2)C(=O)O)c(O)c1 [Example 271, (2S)-3-({4-[2-({[(2-aminobenzyl)amino]carbonyl}amino)ethoxy]-2-hydroxybenzoyl}-amino)-2-{[(benzyloxy)carbonyl]amino}propanoic acid]"
8,19.5,"N=C(N)NCCOc1ccc(C(=O)NC[C@H](NC(=O)Nc2ccc(Cl)cc2)C(=O)O)c(O)c1 [Example 180, (2S)-3-{[4-(2-{[amino(imino)methyl]amino}ethoxy)-2-hydroxybenzoyl]amino}-2-{[(4-chloroanilino)carbonyl]amino}propanoic acid]"
9,19.7,"N=C(N)NCCOc1ccc(C(=O)NC[C@H](NC(=O)Nc2ccc(F)cc2)C(=O)O)c(O)c1 [Example 181, (2S)-3-{[4-(2-{[amino(imino)methyl]amino}ethoxy)-2-hydroxybenzoyl]amino}-2-{[(4-fluoroanilino)carbonyl]amino}propanoic acid]"
10,1.6,"O=C(NCCOc1ccc(C(=O)NC[C@H](NC(=O)OCC(Cl)(Cl)Cl)C(=O)O)c(O)c1)NCc1cccnc1 [Example 244, (2S)-3-({2-hydroxy-4-[2-({[(pyridin-3-ylmethyl)amino]carbonyl}amino)-ethoxy]benzoyl}amino)-2-{[(2,2,2-trichloroethoxy)carbonyl]amino}propanoic acid]"
11,3,"CCOC(=O)N[C@@H](CNC(=O)c1ccc(OCCNC(=O)NCc2cccnc2)cc1O)C(=O)O [Example 235, (2S)-2-[(ethoxycarbonyl)amino]-3-({2-hydroxy-4-[2-({[(pyridin-3-ylmethyl)amino]-carbonyl}amino)ethoxy]benzoyl}amino)propanoic acid]"
12,2.31,"Cc1cccc(C(=O)N[C@@H](CNC(=O)c2ccc(OCCNC(=N)N)cc2O)C(=O)O)c1C [Example 214, (2S)-3-{[4-(2-{[amino(imino)methyl]amino}ethoxy)-2-hydroxybenzoyl]amino}-2-[(2,3-dimethylbenzoyl)amino]propanoic acid]"

# Second part, the compound before the results:
row,SMILES,IC50 [µM]
1,"O=C(Nc1ccccc1-c1ccccc1)N[C@@H](CNC(=O)c1ccc(OCCNC2=NCCCN2)cc1O)C(=O)O [Example 29, (2S)-2-{[([1,1′-biphenyl]-2-ylamino)carbonyl]amino}-3-({2-hydroxy-4-[2-(1,4,5,6-tetrahydropyrimidin-2-ylamino)ethoxy]benzoyl}amino)propanoic acid]",0.405
2,"CCCCNC(=O)N[C@@H](CNC(=O)c1ccc(OCCNC2=NCCN2)cc1O)C(=O)O [Example 108, (2S)-2-{[(butylamino)carbonyl]amino}-3-({4-[2-(4,5-dihydro-1H-imidazol-2-ylamino)ethoxy]-2-hydroxybenzoyl}amino)propanoic acid]",1.1
3,"C=CCOC(=O)N[C@@H](CNC(=O)c1ccc(OCCNC2=NCCN2)cc1O)C(=O)O [Example 101, (2S)-2-{[(allyloxy)carbonyl]amino}-3-({4-[2-(4,5-dihydro-1H-imidazol-2-ylamino)-ethoxy]-2-hydroxybenzoyl}amino)propanoic acid]",0.094
4,"O=C(NCCOc1ccc(C(=O)NC[C@H](NC(=O)OCc2ccccc2)C(=O)O)c(O)c1)NCc1ccccc1Cl [Example 267, (2S)-2-{[(benzyloxy)carbonyl]amino}-3-({4-[2-({[(2-chlorobenzyl)amino]carbonyl}-amino)ethoxy]-2-hydroxybenzoyl}amino)propanoic acid]",10.2
5,"O=C(Nc1ccccc1Cl)N[C@@H](CNC(=O)c1ccc(OCCNC2=NCCCN2)cc1O)C(=O)O [Example 27, (2S)-2-{[(2-chloroanilino)carbonyl]amino}-3-({2-hydroxy-4-[2-(1,4,5,6-tetrahydropyrimidin-2-ylamino)ethoxy]benzoyl}amino)propanoic acid]",0.331
6,"C#CCCC(=O)N[C@@H](CNC(=O)c1ccc(OCCNC2=NCCN2)cc1O)C(=O)O [Example 125, (2S)-3-({4-[2-(4,5-dihydro-1H-imidazol-2-ylamino)ethoxy]-2-hydroxybenzoyl}-amino)-2-(pent-4-ynoylamino)propanoic acid]",> 1
7,"CCCCCCCCNC(=O)N[C@@H](CNC(=O)c1ccc(OCCNC2=NCCN2)cc1O)C(=O)O [Example 110, (2S)-3-({4-[2-(4,5-dihydro-1H-imidazol-2-ylamino)ethoxy]-2-hydroxybenzoyl}-amino)-2-{[(octylamino)carbonyl]amino}propanoic acid]",0.544
8,"C=CCCOC(=O)N[C@@H](CNC(=O)c1ccc(OCCNC2=NCCN2)cc1O)C(=O)O [Example 102, (2S)-2-{[(but-3-enyloxy)carbonyl]amino}-3-({4-[2-(4,5-dihydro-1H-imidazol-2-ylamino)ethoxy]-2-hydroxybenzoyl}amino)propanoic acid]",0.069
9,"CCCCCCOC(=O)N[C@@H](CNC(=O)c1ccc(OCCNC(=O)NCc2ccncc2)cc1O)C(=O)O [Example 255, (2S)-2-{[(hexyloxy)carbonyl]amino}-3-({2-hydroxy-4-[2-({[(pyridin-4-ylmethyl)amino]carbonyl}amino)ethoxy]benzoyl}amino)propanoic acid]",5.31
10,"O=C(N[C@@H](CNC(=O)c1ccc(OCCNc2ncccn2)cc1O)C(=O)O)Oc1ccccc1 [Example 54, (2S)-3-({2-hydroxy-4-[2-(pyrimidin-2-ylamino)ethoxy]benzoyl}amino)-2-[(phenoxycarbonyl)amino]propanoic acid]",34
11,"CC(C)COC(=O)N[C@@H](CNC(=O)c1ccc(OCCNc2ncccn2)cc1O)C(=O)O [Example 56, (2S)-3-({2-hydroxy-4-[2-(pyrimidin-2-ylamino)ethoxy]benzoyl}amino)-2-[(isobutoxycarbonyl)amino]propanoic acid]",85.8
12,"O=C(Nc1ccc(F)cc1)N[C@@H](CNC(=O)c1ccc(OCCNc2ncccn2)cc1O)C(=O)O [Example 87, (2S)-2-{[(4-fluoroanilino)carbonyl]amino}-3-({2-hydroxy-4-[2-(pyrimidin-2-ylamino)ethoxy]benzoyl}amino)propanoic acid]",> 1
13,"O=C(Nc1ccc(OC(F)(F)F)cc1)N[C@@H](CNC(=O)c1ccc(OCCNc2ncccn2)cc1O)C(=O)O [Example 85, (2S)-3-({2-hydroxy-4-[2-(pyrimidin-2-ylamino)ethoxy]benzoyl}amino)-2-({[4-(trifluoromethoxy)anilino]carbonyl}amino)propanoic acid]",> 1
14,"CCCCCC(=O)N[C@@H](CNC(=O)c1ccc(OCCNC2=NCCN2)cc1O)C(=O)O [Example 120, (2S)-3-({4-[2-(4,5-dihydro-1H-imidazol-2-ylamino)ethoxy]-2-hydroxybenzoyl}-amino)-2-(hexanoylamino)propanoic acid]",> 1
15,"CCCC(=O)N[C@@H](CNC(=O)c1ccc(OCCNC2=NCCN2)cc1O)C(=O)O [Example 119, (2S)-2-(butyrylamino)-3-({4-[2-(4,5-dihydro-1H-imidazol-2-ylamino)ethoxy]-2-hydroxybenzoyl}amino)propanoic acid]",> 1
16,"CCCCCCCCNC(=O)N[C@@H](CNC(=O)c1ccc(OCCNc2ncccn2)cc1O)C(=O)O [Example 94, (2S)-3-({2-hydroxy-4-[2-(pyrimidin-2-ylamino)ethoxy]benzoyl}amino)-2-{[(octylamino)carbonyl]amino}propanoic acid]",> 1
17,"CCCCCCCCOC(=O)N[C@@H](CNC(=O)c1ccc(OCCNC(=O)NCc2ccccc2)cc1O)C(=O)O [Example 229, (2S)-3-{[4-(2-{[(benzylamino)carbonyl]amino}ethoxy)-2-hydroxybenzoyl]amino}-2-{[(octyloxy)carbonyl]amino}propanoic acid]",17.1
18,"C=CCCOC(=O)N[C@@H](CNC(=O)c1ccc(OCCNC2=NCCCN2)cc1O)C(=O)O [Example 7, (2S)-2-{[(but-3-enyloxy)carbonyl]amino}-3-({2-hydroxy-4-[2-(1,4,5,6-tetrahydropyrimidin-2-ylamino)ethoxy]benzoyl}amino)propanoic acid]",0.092
19,"CC(C)OC(=O)N[C@@H](CNC(=O)c1ccc(OCCNC2=NCCN2)cc1O)C(=O)O [Example 100, (2S)-3-({4-[2-(4,5-dihydro-1H-imidazol-2-ylamino)ethoxy]-2-hydroxybenzoyl}-amino)-2-[(isopropoxycarbonyl)amino]propanoic acid]",0.079
